Three molecules from patent US20050129725A1, “Method of controlling pest and pest control agent” (KURARAY CO., LTD., priority 2002, published 2005) can be followed below.

Data set [1] deals with adult female Culex pipiens. Put plainly: Repellent effect of treated wire net bags (mouse as blood source) on blood sucking by Culex pipiens. In kind it is in vivo. Conditions: summary of Experimental Example 1. The procedure:
A 20-mesh soft wire net was cut into 15×16 cm, folded into two, and open two sides (longitudinal and transverse sides) were folded to give a bag. Four of these bags were prepared. Farnesylacetone (mixing ratio:[…]/trans-trans form=15/50/35) was dissolved in ethanol at 0.2 wt % and 1 wt % and one wire net bag each was immersed in one of the obtained solutions for about 10 sec. The bag was taken out from the solution, and air-dried at room temperature for 30 min to give a farnesylacetone treated wire net bag. The wire net bag treated with farnesylacetone 0.2 wt % solution was taken as Example 1, and the wire net bag treated with farnesylacetone 1 wt % solution was taken as Example 2. […] The wire net bags of Examples 1 and 2 and Comparative Example 1 were evaluated in Experimental Example 1 for the repellent effect on adult female Culex pipiens using an untreated wire net bag as a control.
50 to 70 female adult Culex pipiens at 10-15 days after eclosion and having high blood sucking activity were released inside each of four adult raising cages (30×40×30 cm). […] As a blood sucking result, the number of the test Culex pipiens with swollen abdomen was counted at a certain time intervals after the start of the test, which number was divided by the number of test Culex pipiens to calculate a blood sucking rate (%). […]

The next data set has as its system Blattella germanica. Put plainly: Box shelter lurking place choice test with coated paper sheets. The following applies: summary of Experimental Example 2. In kind it is in vivo. The method, then: A mixture of farnesylacetone (mixing ratio:cis-cis form/cis-trans form and trans-cis form/trans-trans form=15/50/35) and vitamin E (antioxidant) (weight ratio 99:1) was dissolved in methanol at 0.06 wt % and 0.3 wt %. The obtained solutions were coated on a 0.26 mm thick paper sheet at 167 g/l m^2, and air-dried to evaporate methanol, whereby sheets having a farnesylacetone coating at 0.1 g/m^2 and 0.5 g/m^2 were obtained and used as Example 3 and Example 4, respectively. Both a farnesylacetone coating sheet prepared on the very day and one left open and uncontrolled by hanging in a room at a room temperature of 21-24° C. for 2 weeks, where ventilation rate was 10-15 times per 1 hour, were evaluated in Experimental Examples 2-4 for repellence performance against the larvae of Blattella germanica, Camponotus japonicus and Anthrenus verbasci using untreated paper sheet as a control.
One box shelter (length 8 cm×side 12.5 cm×height 2 cm, made of white corrugated cardboard) having one entrance (width 1 cm×height 2 cm) and one of the test-day-made products of Example 3 and 4, the products left open and uncontrolled for 2 weeks of Example 3 and 4 and a control paper sheet, which was adhered to an interior floor surface, was prepared for each test sample. […]

The nature of data set [2]: Measurement of farnesylacetone concentration in the air (gas chromatography, FID). In kind it is physicochemical. The following applies: 1 hr. The method, then: Farnesylacetone (1 mL) was placed in a 50 mL sample bottle, and a large magnetic stirring bar capable of rotating the air as well was placed therein. […] Thereafter, the gas in the sample bottle was taken by 5 mL with a gas tight syringe, and using gas chromatography with an FID detector, the concentration of farnesylacetone was measured by the absolute calibration method.
(§1) Farnesylacetone (1 mL) was placed in a 50 mL sample bottle, and a large magnetic stirring bar capable of rotating the air as well was placed therein The bottle was placed neck-deep in a […] with rotation, and heated for 1 hr to fill the inside of the sample bottle with farnesylacetone vapor. Thereafter, the gas in the sample bottle was taken by 5 mL with a gas tight syringe, and using gas chromatography with an FID detector, the concentration of farnesylacetone was measured by an absolute calibration method. […] Almost simultaneously, the gas (5 mL) in the sample bottle was taken again, a propeller was set in a 10 L beaker, the gas was added into the sealed beaker, the air in the beaker was stirred with the propeller for 10 min to dilute the gas 2,000-fold, whereby gas containing […] farnesylacetone was obtained. […]

A further data set has as its system Coptotermes formosanus. In kind it is in vivo. Conditions: for number of Coptotermes formosanus in test section: 30 ants in total; for number of Coptotermes formosanus in control section: untreated half of same schale. The method, then:
Three sets of experiment systems were prepared wherein quartz sand allowed to absorb a suitable amount of water was spread on a 90 mm diameter schale in a thickness of 1 mm, a 5 mm width groove was formed on a diameter line to divide the dish into two, three 8 mm diameter circular filters impregnated with a suitable amount of a solution of farnesylacetone or phytone in acetone and air-dried were placed in one test section, and three untreated circular filters were placed in the control section.
In each experiment system were each released 10 worker ants of Coptotermes formosanus and raised in an incubator at 28° C., humidity 70%. After a certain time, the number of Coptotermes formosanus in the test section and the control section was counted. The repellence rate and mortality were calculated from the following formulas. Repellence rate={1−(number of the ants in the test section/number of the survived ants)}×100 (%) Mortality=number of the dead ants/30×100 (%)

The nature of data set [3]: Odor and discomfort of sampled farnesylacetone gas in human. The procedure: Farnesylacetone (1 mL) was placed in a 50 mL sample bottle, and a large magnetic stirring bar capable of rotating the air as well was placed therein. The bottle was placed neck-deep in an oil bath at 130° C. with rotation, and heated for 1 hr to saturate the inside of the sample bottle with farnesylacetone vapor. Thereafter, the gas in the sample bottle was taken by 5 mL with a gas tight syringe, and using gas chromatography with an FID detector, the concentration of farnesylacetone was measured by the absolute calibration method.
as §1

A further data set relates to fleas parasitic in dogs. The experiment in a line: Scratching behaviour of dog raised in sprayed dog kennel. It is filed as in vivo. Conditions: kennel sprayed every week with 1% solution in ethanol; observed 30 min every day for one week. The procedure: (§2) A dog raised in a dog kennel (vaporization area expanding means), the inside of which was sprayed every week with a 1% solution of farnesylacetone in ethanol with a spray container (reservoir means), and a dog raised in a dog kennel, the inside of which was sprayed every week with ethanol alone, were observed and compared for their behaviors for 30 min every day for one week. The dog raised in the farnesylacetone treated dog kennel scratched its body twice a day, but the dog raised in the dog kennel free of farnesylacetone treatment scratched its body 13 times a day. The concentration of farnesylacetone in the dog kennel was not more than 1 μg/L (detection limit). It is assumed that the fleas parasitic in dogs were repelled and decreased by farnesylacetone.

Data set [4] in a line: Concentration of farnesylacetone in the dog kennel. It is filed as physicochemical. The following applies: kennel sprayed every week with 1% solution in ethanol; detection limit. The procedure: as §2

Like-named read-outs stand apart in the source and are kept apart here.

For the molecule `CCN(CC)C(=O)c1cccc(C)c1` [DEET, N,N-diethyl-m-tolamide, reference compound], the “course of repellent effect of treated wire net bag on Culex pipiens” value in data set [1] is “decreases with time”.
On to `CC(=O)CC/C=C(\C)CC/C=C(\C)CCC=C(C)C` [farnesylacetone], for which the “course of repellent effect of treated wire net bag on Culex pipiens” value in data set [1] was “maintained at a high level even after 18 hr”. Also, the “time for which treated paper sheet maintained Blattella germanica control effect” value in the data set with Blattella germanica was “at least 2 weeks”. In addition, the “concentration of farnesylacetone in the gas” value was 20 µg/L in data set [2] (sample bottle filled with vapor, water bath at 60° C.) and 20,000 μg/L in data set [2] (sample bottle saturated with vapor, oil bath at 130° C.). For the same molecule, the “death (number of the dead ants)” value came to 1 with Coptotermes formosanus (concentration 1%, 1 day later); 1 in the data set with Coptotermes formosanus (concentration 1%, 4 days later); 2 with Coptotermes formosanus (concentration 5%, 1 day later); 3 with Coptotermes formosanus (concentration 5%, 4 days later). Moreover, the repellence rate with Coptotermes formosanus (concentration 1%, 1 day later) was found to be 86%; in the data set on Coptotermes formosanus (concentration 1%, 4 days later), 100%; in the data set with Coptotermes formosanus (concentration 5%, 1 day later), 100%; with Coptotermes formosanus (concentration 5%, 4 days later), 96%. Further, the “number of Coptotermes formosanus in test section” value (shortened to “number … in test section”) in the data set with Coptotermes formosanus (concentration 1%, 1 day later) turned out to be 4; in the data set on Coptotermes formosanus (concentration 1%, 4 days later) it was 0; in the data set on Coptotermes formosanus (concentration 5%, 1 day later) it was 0; in the data set with Coptotermes formosanus (concentration 5%, 4 days later), 1. The “number of Coptotermes formosanus in control section” value (from here on “number … in control section”) with Coptotermes formosanus (concentration 1%, 1 day later) came out at 25; in the data set on Coptotermes formosanus (concentration 1%, 4 days later) it was 29; with Coptotermes formosanus (concentration 5%, 1 day later), 28; with Coptotermes formosanus (concentration 5%, 4 days later) it was 26. Also, the “odor and effect of sampled gas on human” value in data set [3] (gas containing 20,000 μg/L) is “had a strong odor, caused cough when inhaled in a large amount, and provoked uncomfortable feeling in human”. In data set [3] (gas further diluted 10-fold, printed as containing 0.01 μg/L), the “odor of sampled gas detected by human” value was “scarcely had an odor detected by human”. Also, the “dog scratched its body (times a day)” value in the data set on fleas parasitic in dogs was “twice a day”. In addition, the “concentration of farnesylacetone in the dog kennel” value in data set [4] is “not more than 1 μg/L”.
As to `CC(=O)CCCC(C)CCCC(C)CCCC(C)C` (stereo not drawn) [phytone], in the data set on Coptotermes formosanus (concentration 10%, 1 day later), the “death (number of the dead ants)” value is recorded as 0, the repellence rate was 63%, the “number … in test section” value stood at 11 and the “number … in control section” value is 19. Further, in the data set on Coptotermes formosanus (concentration 50%, 1 day later), the “death (number of the dead ants)” value is given as 1, the repellence rate came out at 86%, the “number … in test section” value is 4 and the “number … in control section” value amounted to 25.
